Measurements: US20130072430A1, “METHODS FOR TREATMENT OR PROPHYLAXIS OF KIDNEY OR LIVER DYSFUNCTION” (NPS PHARMACEUTICALS, INC., priority 2010, published 2013)

Tested on: Human patients with short bowel syndrome
Assay: Example 1: kidney diagnostic biomarkers (urea nitrogen, creatinine, GFR) in short bowel syndrome patients, every four weeks for 24 weeks
Assay type: in vivo
Description: Human patients with short bowel syndrome were divided into three groups: a control group (16 total individuals) to receive placebo, an experimental group (35 total individuals) to receive teduglutide at 0.05 mg/kg/day throughout the study, and an experimental group (32 total individuals) to receive teduglutide at 0.1 mg/kg/day throughout the study. Patients were treated by subcutaneous injection of placebo or the appropriate dose of teduglutide. As individuals with short bowel syndrome are likely to experience associated liver and kidney disease, known biomarkers of liver and kidney function were monitored every four weeks, for 24 weeks. The liver biomarkers tested included total bilirubin, ALT and AST and ALP. The kidney biomarkers tested included urea nitrogen, creatinine and GFR. Before administration of placebo or teduglutide, diagnostic biomarker levels were tested to establish a baseline for each individual.
To visualize the effect of GLP-2 on the levels of the diagnostic biomarkers, the average change from baseline was calculated for the placebo and teduglutide treated groups for each visit after a baseline was established. The average change from baseline of each group is depicted in FIGS. […]. The numerical figures for each diaanostic biomarker at each time point are depicted in Table 1.
The raw data for this sorting is reproduced in Table 2 below.

[1] = Week 12, range >5%, teduglutide 0.1 mg/kg/day
[2] = Week 12, range −5%<= and <=5%, teduglutide 0.05 mg/kg/day
[3] = Week 12, range −5%<= and <=5%, teduglutide 0.1 mg/kg/day
[4] = Week 16, range <−5%, teduglutide 0.05 mg/kg/day
[5] = Week 16, range <−5%, teduglutide 0.1 mg/kg/day
[6] = Week 16, range >5%, teduglutide 0.05 mg/kg/day
[7] = Week 16, range >5%, teduglutide 0.1 mg/kg/day
[8] = Week 16, range −5%<= and <=5%, teduglutide 0.05 mg/kg/day
[9] = Week 16, range −5%<= and <=5%, teduglutide 0.1 mg/kg/day
[10] = Week 20, range <−5%, teduglutide 0.05 mg/kg/day
[11] = Week 20, range <−5%, teduglutide 0.1 mg/kg/day
[12] = Week 20, range >5%, teduglutide 0.05 mg/kg/day
[13] = Week 20, range >5%, teduglutide 0.1 mg/kg/day
[14] = Week 20, range −5%<= and <=5%, teduglutide 0.05 mg/kg/day
[15] = Week 20, range −5%<= and <=5%, teduglutide 0.1 mg/kg/day
[16] = Week 24, range <−5%, teduglutide 0.05 mg/kg/day
[17] = Week 24, range <−5%, teduglutide 0.1 mg/kg/day
[18] = Week 24, range >5%, teduglutide 0.05 mg/kg/day
[19] = Week 24, range >5%, teduglutide 0.1 mg/kg/day
[20] = Week 24, range −5%<= and <=5%, teduglutide 0.05 mg/kg/day
[21] = Week 24, range −5%<= and <=5%, teduglutide 0.1 mg/kg/day

CC[C@H](C)[C@H](NC(=O)[C@H](Cc1ccccc1)NC(=O)[C@H](CC(=O)O)NC(=O)[C@H](CCCNC(=N)N)NC(=O)[C@H](C)NC(=O)[C@H](C)NC(=O)[C@H](CC(C)C)NC(=O)[C@H](CC(N)=O)NC(=O)[C@H](CC(=O)O)NC(=O)[C@H](CC(C)C)NC(=O)[C@@H](NC(=O)[C@@H](NC(=O)[C@H](CC(N)=O)NC(=O)[C@H](CCSC)NC(=O)[C@H](CCC(=O)O)NC(=O)[C@H](CC(=O)O)NC(=O)[C@H](CO)NC(=O)[C@H](Cc1ccccc1)NC(=O)[C@H](CO)NC(=O)CNC(=O)[C@H](CC(=O)O)NC(=O)CNC(=O)[C@@H](N)Cc1c[nH]cn1)[C@@H](C)O)[C@@H](C)CC)C(=O)N[C@@H](CC(N)=O)C(=O)N[C@@H](Cc1c[nH]c2ccccc12)C(=O)N[C@@H](CC(C)C)C(=O)N[C@H](C(=O)N[C@@H](CCC(N)=O)C(=O)N[C@H](C(=O)N[C@@H](CCCCN)C(=O)N[C@H](C(=O)N[C@H](C(=O)N[C@@H](CC(=O)O)C(=O)O)[C@@H](C)O)[C@@H](C)CC)[C@@H](C)O)[C@@H](C)CC [teduglutide]
CREATININE (RATE BLANKED) change from baseline: patients in range, n(%) [1]: 17(53.1%)
GFR change from baseline: patients in range, n(%) [1]: 9(28.1%)
UREA NITROGEN change from baseline: patients in range, n(%) [1]: 14(43.8%)
CREATININE (RATE BLANKED) change from baseline: patients in range, n(%) [2]: 4(11.4%)
GFR change from baseline: patients in range, n(%) [2]: 5(14.3%)
UREA NITROGEN change from baseline: patients in range, n(%) [2]: 4(11.4%)
CREATININE (RATE BLANKED) change from baseline: patients in range, n(%) [3]: 4(12.5%)
GFR change from baseline: patients in range, n(%) [3]: 10(31.3%)
UREA NITROGEN change from baseline: patients in range, n(%) [3]: 3(9.4%)
CREATININE (RATE BLANKED) change from baseline: patients in range, n(%) [4]: 8(22.9%)
GFR change from baseline: patients in range, n(%) [4]: 7(20.0%)
UREA NITROGEN change from baseline: patients in range, n(%) [4]: 12(34.3%)
CREATININE (RATE BLANKED) change from baseline: patients in range, n(%) [5]: 10(31.3%)
GFR change from baseline: patients in range, n(%) [5]: 12(37.5%)
UREA NITROGEN change from baseline: patients in range, n(%) [5]: 9(28.1%)
CREATININE (RATE BLANKED) change from baseline: patients in range, n(%) [6]: 8(22.9%)
GFR change from baseline: patients in range, n(%) [6]: 11(31.4%)
UREA NITROGEN change from baseline: patients in range, n(%) [6]: 10(28.6%)
CREATININE (RATE BLANKED) change from baseline: patients in range, n(%) [7]: 12(37.5%)
GFR change from baseline: patients in range, n(%) [7]: 12(37.5%)
UREA NITROGEN change from baseline: patients in range, n(%) [7]: 9(28.1%)
CREATININE (RATE BLANKED) change from baseline: patients in range, n(%) [8]: 12(34.3%)
GFR change from baseline: patients in range, n(%) [8]: 10(28.6%)
UREA NITROGEN change from baseline: patients in range, n(%) [8]: 6(17.1%)
CREATININE (RATE BLANKED) change from baseline: patients in range, n(%) [9]: 8(25.0%)
GFR change from baseline: patients in range, n(%) [9]: 6(18.8%)
UREA NITROGEN change from baseline: patients in range, n(%) [9]: 12(37.5%)
CREATININE (RATE BLANKED) change from baseline: patients in range, n(%) [10]: 9(25.7%)
GFR change from baseline: patients in range, n(%) [10]: 10(28.6%)
UREA NITROGEN change from baseline: patients in range, n(%) [10]: 13(37.1%)
CREATININE (RATE BLANKED) change from baseline: patients in range, n(%) [11]: 7(21.9%)
GFR change from baseline: patients in range, n(%) [11]: 11(34.4%)
UREA NITROGEN change from baseline: patients in range, n(%) [11]: 12(37.5%)
CREATININE (RATE BLANKED) change from baseline: patients in range, n(%) [12]: 10(28.6%)
GFR change from baseline: patients in range, n(%) [12]: 10(28.6%)
UREA NITROGEN change from baseline: patients in range, n(%) [12]: 7(20.0%)
CREATININE (RATE BLANKED) change from baseline: patients in range, n(%) [13]: 13(40.6%)
GFR change from baseline: patients in range, n(%) [13]: 8(25.0%)
UREA NITROGEN change from baseline: patients in range, n(%) [13]: 11(34.4%)
CREATININE (RATE BLANKED) change from baseline: patients in range, n(%) [14]: 8(22.9%)
GFR change from baseline: patients in range, n(%) [14]: 7(20.0%)
UREA NITROGEN change from baseline: patients in range, n(%) [14]: 7(20.0%)
CREATININE (RATE BLANKED) change from baseline: patients in range, n(%) [15]: 9(28.1%)
GFR change from baseline: patients in range, n(%) [15]: 10(31.3%)
UREA NITROGEN change from baseline: patients in range, n(%) [15]: 6(18.8%)
CREATININE (RATE BLANKED) change from baseline: patients in range, n(%) [16]: 8(22.9%)
GFR change from baseline: patients in range, n(%) [16]: 8(22.9%)
CREATININE (RATE BLANKED) change from baseline: patients in range, n(%) [17]: 11(34.4%)
GFR change from baseline: patients in range, n(%) [17]: 6(18.8%)
UREA NITROGEN change from baseline: patients in range, n(%) [17]: 14(43.8%)
CREATININE (RATE BLANKED) change from baseline: patients in range, n(%) [18]: 9(25.7%)
GFR change from baseline: patients in range, n(%) [18]: 10(28.6%)
UREA NITROGEN change from baseline: patients in range, n(%) [18]: 7(20.0%)
CREATININE (RATE BLANKED) change from baseline: patients in range, n(%) [19]: 9(28.1%)
GFR change from baseline: patients in range, n(%) [19]: 14(43.8%)
UREA NITROGEN change from baseline: patients in range, n(%) [19]: 13(40.6%)
CREATININE (RATE BLANKED) change from baseline: patients in range, n(%) [20]: 9(25.7%)
GFR change from baseline: patients in range, n(%) [20]: 8(22.9%)
UREA NITROGEN change from baseline: patients in range, n(%) [20]: 2(5.7%)
CREATININE (RATE BLANKED) change from baseline: patients in range, n(%) [21]: 9(28.1%)
GFR change from baseline: patients in range, n(%) [21]: 9(28.1%)
UREA NITROGEN change from baseline: patients in range, n(%) [21]: 2(6.3%)
percent of the group experiencing a decrease in GFR greater than 5% versus placebo (both groups receiving teduglutide): always less than the percent of the group receiving placebo
creatinine levels, average change versus baseline (FIG. 9) (groups receiving teduglutide): remained stable or decreased slightly
